Tests used:
[1] = localization of technetium activity in a mouse after injection of the complex into the blood stream; type: in vivo; details: one hour after injection into the blood stream
Description: One hour after this complex was injected into the blood stream of a mouse, about 24 percent of technetium activity had localized in its kidneys.

[2] = biological distribution of the 99m-Tc complex in mice as a function of time; type: in vivo, white female Swiss Webster mice; details: for Percentage of total 99m-Tc in mice, Carcass / Percentage of total 99m-Tc in mice, Gut / Percentage of total 99m-Tc in mice, Kidneys / Percentage of total 99m-Tc in mice, Liver / Percentage of total 99m-Tc in mice, Lungs / Percentage of total 99m-Tc in mice, Pancreas / Percentage of total 99m-Tc in mice, Spleen / Percentage of total 99m-Tc in mice, Stomach / Percentage of total 99m-Tc in mice, Spleen & Pancreas / Percentage of total 99m-Tc in mice, Urine: i.v. tail vein
Description: The mice were injected intravenously via the tail vein, sacrificed after appropriate time periods, then dissected. The isolated organs were assayed for radioactivity using a Packard series 410 A Auto Gamma Spectrometer.
Each data point represents an average value from three mice taken in three separate distribution studies.
The mice were tested and assayed for radioactivity as described in Example 1.

[3] = water/octanol partition coefficient Ln(aw/ao) of the technetium complex; type: physicochemical; details: for Partition Coefficient = Ln(aw/ao): 27000 µM
Description: This ratio of distribution is quite easily followed by determining the activity of the respective phases of a two-phase system, in which the complex is added as a water solution to octanol in equal parts. […] (wherein aw is the radioactivity distributed in the aqueous phase and ao is the radioactivity distributed in the organic phase, at a pH in the range between pH 4 and pH 9), after thorough agitation to admix the phases followed by standing to accomplish complete separation.
The blood is on the mildly alkaline side at pH=7.4, while the urine, etc., is about pH 5 to pH 8.

[4] = kidney imaging in dogs with a gamma radiation detecting camera; type: in vivo; details: one-half hour after injection
Description: Next, 9 ml. of saline were added to the glass vial (held under N2 atmosphere). The pH of the vial contents was raised to pH 7.4, using 1 molar NaOH. The solution was transferred to a pharmaceutical vial, capped and sealed. Using a needle inserted through the rubber seal septum, the vial was evacuated to 5 mm. Hg pressure and purged with nitrogen to 1 atmospheric pressure. The vial contents were ready for injection and kidney imaging.

[5] = in vivo
[6] = mouse kidney distribution of Tc-99m pertechnetate (comparison); type: in vivo; details: at any time during a 24 hour period

technetium-mercaptoacetic acid
technetium activity found in urine [1]: A large part of the remaining activity
technetium activity localized in kidneys [1]: about 24%

99m-Tc-dimercaptosuccinic acid
Percentage of total 99m-Tc in mice, Carcass ([2]; 0 hr): 40.9 Percentage of total 99m-Tc
Percentage of total 99m-Tc in mice, Carcass ([2]; 0.5 hr): 30.4 Percentage of total 99m-Tc
Percentage of total 99m-Tc in mice, Carcass ([2]; 1.0 hr): 26.9 Percentage of total 99m-Tc
Percentage of total 99m-Tc in mice, Carcass ([2]; 2.0 hr): 20.4 Percentage of total 99m-Tc
Percentage of total 99m-Tc in mice, Carcass ([2]; 4.0 hr): 21.3 Percentage of total 99m-Tc
Percentage of total 99m-Tc in mice, Carcass ([2]; 24.0 hr): 8.0 Percentage of total 99m-Tc
Percentage of total 99m-Tc in mice, Gut ([2]; 0 hr): 10.1 Percentage of total 99m-Tc
Percentage of total 99m-Tc in mice, Gut ([2]; 0.5 hr): 6.1 Percentage of total 99m-Tc
Percentage of total 99m-Tc in mice, Gut ([2]; 1.0 hr): 7.0 Percentage of total 99m-Tc
Percentage of total 99m-Tc in mice, Gut ([2]; 2.0 hr): 4.3 Percentage of total 99m-Tc
Percentage of total 99m-Tc in mice, Gut ([2]; 4.0 hr): 3.0 Percentage of total 99m-Tc
Percentage of total 99m-Tc in mice, Gut ([2]; 24.0 hr): 1.7 Percentage of total 99m-Tc
Percentage of total 99m-Tc in mice, Kidneys ([2]; 0 hr): 9.4 Percentage of total 99m-Tc
Percentage of total 99m-Tc in mice, Kidneys ([2]; 0.5 hr): 29.3 Percentage of total 99m-Tc
Percentage of total 99m-Tc in mice, Kidneys ([2]; 1.0 hr): 39.5 Percentage of total 99m-Tc
Percentage of total 99m-Tc in mice, Kidneys ([2]; 2.0 hr): 45.6 Percentage of total 99m-Tc
Percentage of total 99m-Tc in mice, Kidneys ([2]; 4.0 hr): 54.8 Percentage of total 99m-Tc
Percentage of total 99m-Tc in mice, Kidneys ([2]; 24.0 hr): 75.5 Percentage of total 99m-Tc
Percentage of total 99m-Tc in mice, Liver ([2]; 0 hr): 28.6 Percentage of total 99m-Tc
Percentage of total 99m-Tc in mice, Liver ([2]; 0.5 hr): 12.8 Percentage of total 99m-Tc
Percentage of total 99m-Tc in mice, Liver ([2]; 1.0 hr): 9.4 Percentage of total 99m-Tc
Percentage of total 99m-Tc in mice, Liver ([2]; 2.0 hr): 6.8 Percentage of total 99m-Tc
Percentage of total 99m-Tc in mice, Liver ([2]; 4.0 hr): 3.8 Percentage of total 99m-Tc
Percentage of total 99m-Tc in mice, Liver ([2]; 24.0 hr): 2.7 Percentage of total 99m-Tc
Percentage of total 99m-Tc in mice, Lungs ([2]; 0 hr): 7.4 Percentage of total 99m-Tc
Percentage of total 99m-Tc in mice, Lungs ([2]; 0.5 hr): 2.3 Percentage of total 99m-Tc
Percentage of total 99m-Tc in mice, Lungs ([2]; 1.0 hr): 1.7 Percentage of total 99m-Tc
Percentage of total 99m-Tc in mice, Lungs ([2]; 2.0 hr): 0.8 Percentage of total 99m-Tc
Percentage of total 99m-Tc in mice, Lungs ([2]; 4.0 hr): 0.7 Percentage of total 99m-Tc
Percentage of total 99m-Tc in mice, Lungs ([2]; 24.0 hr): 0.0 Percentage of total 99m-Tc
Percentage of total 99m-Tc in mice, Pancreas ([2]; 0 hr): 1.4 Percentage of total 99m-Tc
Percentage of total 99m-Tc in mice, Pancreas ([2]; 0.5 hr): 0.7 Percentage of total 99m-Tc
Percentage of total 99m-Tc in mice, Pancreas ([2]; 1.0 hr): 0.4 Percentage of total 99m-Tc
Percentage of total 99m-Tc in mice, Pancreas ([2]; 2.0 hr): 0.3 Percentage of total 99m-Tc
Percentage of total 99m-Tc in mice, Pancreas ([2]; 4.0 hr): 0.2 Percentage of total 99m-Tc
Percentage of total 99m-Tc in mice, Pancreas ([2]; 24.0 hr): 0.2 Percentage of total 99m-Tc
Percentage of total 99m-Tc in mice, Spleen ([2]; 0 hr): 0.3 Percentage of total 99m-Tc
Percentage of total 99m-Tc in mice, Spleen ([2]; 0.5 hr): 0.4 Percentage of total 99m-Tc
Percentage of total 99m-Tc in mice, Spleen ([2]; 1.0 hr): 0.2 Percentage of total 99m-Tc
Percentage of total 99m-Tc in mice, Spleen ([2]; 2.0 hr): 0.3 Percentage of total 99m-Tc
Percentage of total 99m-Tc in mice, Spleen ([2]; 4.0 hr): 0.1 Percentage of total 99m-Tc
Percentage of total 99m-Tc in mice, Spleen ([2]; 24.0 hr): 0.1 Percentage of total 99m-Tc
Percentage of total 99m-Tc in mice, Stomach ([2]; 0 hr): 1.8 Percentage of total 99m-Tc
Percentage of total 99m-Tc in mice, Stomach ([2]; 0.5 hr): 1.1 Percentage of total 99m-Tc
Percentage of total 99m-Tc in mice, Stomach ([2]; 1.0 hr): 1.2 Percentage of total 99m-Tc
Percentage of total 99m-Tc in mice, Stomach ([2]; 2.0 hr): 0.5 Percentage of total 99m-Tc
Percentage of total 99m-Tc in mice, Stomach ([2]; 4.0 hr): 0.4 Percentage of total 99m-Tc
Percentage of total 99m-Tc in mice, Stomach ([2]; 24.0 hr): 0.4 Percentage of total 99m-Tc
accumulation of activity in the animal's kidneys ([2]; mice, immediately after injection to 24 hour): begins to accumulate in the animal's kidneys immediately after injection of the Tc-DMSA complex and continues to concentrate during a 24 hour period
Partition Coefficient = Ln(aw/ao) ([3]; pH 4): 6.0
Partition Coefficient = Ln(aw/ao) ([3]; pH 5): 6.8
Partition Coefficient = Ln(aw/ao) ([3]; pH 6): 7.6
Partition Coefficient = Ln(aw/ao) ([3]; pH 7): 8.5
Partition Coefficient = Ln(aw/ao) ([3]; pH 8): 8.2
Partition Coefficient = Ln(aw/ao) ([3]; pH 9): 8.1
kidney images [4]: Good kidney images

Technetium-3-mercaptopropanoic Acid
Partition Coefficient - Ln(aw/ao) ([3]; pH 4): 2.4
Partition Coefficient - Ln(aw/ao) ([3]; pH 5): 2.7
Partition Coefficient - Ln(aw/ao) ([3]; pH 6): 3.1
Partition Coefficient - Ln(aw/ao) ([3]; pH 7): 3.6
Partition Coefficient - Ln(aw/ao) ([3]; pH 8): 4.1
Partition Coefficient - Ln(aw/ao) ([3]; pH 9): 4.7

Technetium-mercaptosuccinic Acid [^99m Tc-mercapto succinic acid]
clearance from kidney tissue [5]: rapidly cleared from kidney tissue

[O]=[99Tc](=[O])(=[O])[O-] [Tc-99m pertechnetate]
maximum kidney concentration of Tc-99m pertechnetate [6]: ≤ 3%

99m-Tc-thioglucose
clearance from kidney tissue [5]: rapidly cleared from kidney tissue
Percentage of total 99m-Tc in mice, Carcass ([2]; 0 hr): 53.1 Percentage of total 99m-Tc
Percentage of total 99m-Tc in mice, Carcass ([2]; 0.5 hr): 1.5 Percentage of total 99m-Tc
Percentage of total 99m-Tc in mice, Carcass ([2]; 1.0 hr): 1.4 Percentage of total 99m-Tc
Percentage of total 99m-Tc in mice, Gut ([2]; 0 hr): 13.3 Percentage of total 99m-Tc
Percentage of total 99m-Tc in mice, Gut ([2]; 0.5 hr): 5.5 Percentage of total 99m-Tc
Percentage of total 99m-Tc in mice, Gut ([2]; 1.0 hr): 1.1 Percentage of total 99m-Tc
Percentage of total 99m-Tc in mice, Kidneys ([2]; 0 hr): 9.0 Percentage of total 99m-Tc
Percentage of total 99m-Tc in mice, Kidneys ([2]; 0.5 hr): 2.8 Percentage of total 99m-Tc
Percentage of total 99m-Tc in mice, Kidneys ([2]; 1.0 hr): 0.4 Percentage of total 99m-Tc
Percentage of total 99m-Tc in mice, Liver ([2]; 0 hr): 18.9 Percentage of total 99m-Tc
Percentage of total 99m-Tc in mice, Liver ([2]; 0.5 hr): 2.1 Percentage of total 99m-Tc
Percentage of total 99m-Tc in mice, Liver ([2]; 1.0 hr): 3.3 Percentage of total 99m-Tc
Percentage of total 99m-Tc in mice, Lungs ([2]; 0 hr): 2.9 Percentage of total 99m-Tc
Percentage of total 99m-Tc in mice, Lungs ([2]; 0.5 hr): 0.3 Percentage of total 99m-Tc
Percentage of total 99m-Tc in mice, Lungs ([2]; 1.0 hr): 0.08 Percentage of total 99m-Tc
Percentage of total 99m-Tc in mice, Spleen & Pancreas ([2]; 0 hr): 2.1 Percentage of total 99m-Tc
Percentage of total 99m-Tc in mice, Spleen & Pancreas ([2]; 0.5 hr): 0.1 Percentage of total 99m-Tc
Percentage of total 99m-Tc in mice, Spleen & Pancreas ([2]; 1 hr): 0.2 Percentage of total 99m-Tc
Percentage of total 99m-Tc in mice, Stomach ([2]; 0 hr): 0.8 Percentage of total 99m-Tc
Percentage of total 99m-Tc in mice, Stomach ([2]; 0.5 hr): 0.8 Percentage of total 99m-Tc
Percentage of total 99m-Tc in mice, Stomach ([2]; 1.0 hr): 0.06 Percentage of total 99m-Tc
Percentage of total 99m-Tc in mice, Urine ([2]; 0 hr): 0.0 Percentage of total 99m-Tc
Percentage of total 99m-Tc in mice, Urine ([2]; 0.5 hr): 89.9 Percentage of total 99m-Tc
Percentage of total 99m-Tc in mice, Urine ([2]; 1 hr): 93.5 Percentage of total 99m-Tc
elimination from the kidneys ([2]; mice, 0-1 hr): eliminated from the kidneys of the mice very rapidly

Source: patent publication US4208398A, “Technetium-labeled complexes, production and use thereof” (priority 1975, dated 1980)
